Assay results: ChEMBL document CHEMBL1201862, “PubChem BioAssay data set” (2004)
The source made the active and inactive calls.

Assays:
[1] = target: T1, Alkaline phosphatase, tissue-nonspecific isozyme (Homo sapiens, UniProt P05186)
T1 sequence (P05186 whole entry): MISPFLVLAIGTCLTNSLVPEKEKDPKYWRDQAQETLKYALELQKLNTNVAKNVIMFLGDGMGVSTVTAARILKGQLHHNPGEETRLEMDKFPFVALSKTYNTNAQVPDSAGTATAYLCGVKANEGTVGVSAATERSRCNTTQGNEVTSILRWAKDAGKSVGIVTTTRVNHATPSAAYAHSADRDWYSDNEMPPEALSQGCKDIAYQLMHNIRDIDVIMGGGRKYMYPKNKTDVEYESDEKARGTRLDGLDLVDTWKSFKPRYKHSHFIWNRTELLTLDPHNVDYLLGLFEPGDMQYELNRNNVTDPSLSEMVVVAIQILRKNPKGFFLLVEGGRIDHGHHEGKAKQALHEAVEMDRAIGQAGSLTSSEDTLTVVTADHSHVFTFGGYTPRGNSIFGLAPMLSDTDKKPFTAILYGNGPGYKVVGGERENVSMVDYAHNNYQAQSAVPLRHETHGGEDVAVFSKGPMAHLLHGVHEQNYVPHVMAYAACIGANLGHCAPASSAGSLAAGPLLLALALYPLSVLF

[2] = target: Eukaryotic translation initiation factor 4E (Mus musculus, UniProt P63073); test: blockers of eIF4G binding by eIF4E – biochemical, TR-FRET, dose response (AID 855); assay type: functional;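 note: potency for disrupting eIF4E binding to eIF4GI seen as loss of FRET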
[3] = target: Hexokinase HKDC1 (Homo sapiens, UniProt Q2TB90); test: inhibition of HKDC1 glucose phosphorylation – biochemical, W721R variant, dose response (AID 504729); assay type: functional
[4] = target: T2, Kappa-type opioid receptor (Homo sapiens, UniProt P41145); assay type: functional
[5] = target: Beta-galactosidase (Escherichia coli, UniProt Q8VNN2); assay type: functional
[6] = target: Nonstructural protein 1 (Influenza A virus, UniProt Q194T2); assay type: functional, Influenza A virus (A/California/07/2009(H1N1))
[7] = target: Matrix metalloproteinase-14 (Homo sapiens, UniProt P50281); test: Dose Response confirmation of uHTS hits for a small molecule inhibitors of MT1-MMP activation in a fluorescence assay set 1.; assay type: functional
[8] = viability loss in HeLa cells – cytotoxicity control for MgcRacGAP inhibitor project, dose response (AID 624300); assay type: functional
[9] = target: T2, Kappa-type opioid receptor; assay type: functional; remark: listed apart in the source
[10] = target: Cytochrome P450 2C9 (Homo sapiens, UniProt P11712); conditions: Potency
[11] = target: Paired box protein Pax-8 (Homo sapiens, UniProt Q06710); test: PAX8 transcriptional activity inhibition in RMG-I – RMG-I cells, luciferase, cherry-pick, dose response (AID 687027); assay type: functional, cell-based;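 note: luciferase reporter driven by Pax8 target thyroperoxidase promoter measured by SteadyGlo luminescence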
[12] = NIH-3T3 fibroblast cytotoxicity, dose response, cytotoxicity control, cell-based, fluorescence, Alamar Blue, secondary assay (AID 2327); assay type: functional;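 note: NIH-3T3 mouse fibroblasts cultured with fluconazole at 8 µg/mL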
[13] = Luminescence-based counterscreen assay for KLF5 inhibitors: dose response cell-based high throughput screening assay to identify cytotoxic compounds using the IEC-6 intestinal epithelial cell line. [Related pubchem assays: 1700 (Primary screen.), 1834 (Confirmation screen.), 1858 (Summary AID.), 1905 (Counterscreen.)]; assay type: functional
[14] = fluconazole-exposed Candida albicans growth modulators – fluorescence, retest, confirmation (AID 2467); assay type: functional, cell-based
[15] = tested on: Streptococcus sp. 'group A'; test: Streptococcus pyogenes SK(-)GAS viability under kanamycin – luminescence, BacTiterGlo, confirmation, counter-screen for streptokinase expression inhibitor project, dose response (AID 1900); assay type: functional, organism-based
[16] = target: T3, Serine/threonine-protein phosphatase (Candida dubliniensis (strain CD36 / CBS 7987 / NCPF 3949 / NRRLY-17841) (Yeast), UniProt B9W6M3); test: blockers of CaCl2-induced CDRE-lacZ signaling – S. cerevisiae, luminescence, secondary, dose response (AID 2388); assay type: functional, cell-based;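 note: yeast reporter cells carrying a calcineurin-responsive lacZ construct stimulated with calcium chloride; luminescent beta-galactosidase reporter signal in whole cells rather than isolated phosphatase activity; potency for inhibition where a drop in reporter signal means calcineurin blockade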
T3 sequence (B9W6M3 whole entry): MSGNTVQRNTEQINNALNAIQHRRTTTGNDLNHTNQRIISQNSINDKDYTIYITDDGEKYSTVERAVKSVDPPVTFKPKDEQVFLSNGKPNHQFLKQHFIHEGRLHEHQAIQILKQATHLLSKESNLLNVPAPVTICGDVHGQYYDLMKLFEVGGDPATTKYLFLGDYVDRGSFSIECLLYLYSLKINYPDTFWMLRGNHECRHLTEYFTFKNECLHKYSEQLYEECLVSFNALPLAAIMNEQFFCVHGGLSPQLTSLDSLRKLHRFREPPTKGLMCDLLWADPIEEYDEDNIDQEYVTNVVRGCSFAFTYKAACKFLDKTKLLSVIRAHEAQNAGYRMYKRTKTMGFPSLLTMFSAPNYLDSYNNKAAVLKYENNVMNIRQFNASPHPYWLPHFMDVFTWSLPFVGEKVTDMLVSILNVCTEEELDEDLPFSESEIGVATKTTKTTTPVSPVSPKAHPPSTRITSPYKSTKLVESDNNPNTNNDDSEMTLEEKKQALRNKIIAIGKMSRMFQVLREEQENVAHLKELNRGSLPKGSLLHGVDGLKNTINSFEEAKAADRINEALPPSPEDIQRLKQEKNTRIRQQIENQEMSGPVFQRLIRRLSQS

[17] = tested on: INS1; test: INS-1E survival protection against cytokine death – cell-based, luminescence, retest, dose response (AID 449756); assay type: functional; conditions: Rattus norvegicus;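 note: cell death triggered by IL-1 beta plus TNF-alpha plus IFN-gamma mixture; protective hits raise ATP signal compared with cytokine alone wells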
[18] = target: ATP-dependent molecular chaperone HSP82 (Candida albicans (strain WO-1) (Yeast), UniProt C4YTQ8); test: steroid-induced GRE reporter decrease in yeast – S. cerevisiae, luminescence, Hsp90 inhibitor project, dose response (AID 2400); assay type: functional, cell-based;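 note: beta-galactosidase luminescence from glucocorticoid response element reporter as proxy for Hsp90 function; inhibitor potency where signal loss means Hsp90 inhibition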
[19] = tested on: Streptococcus; test: GAS UMAA2166 growth inhibition – luminescence, BacTiterGlo, counter-screen for streptokinase expression inhibitor project, dose response (AID 1915); assay type: functional, organism-based;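 note: potency for reduction of bacterial viability or growth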

T2 sequence (P41145 whole entry): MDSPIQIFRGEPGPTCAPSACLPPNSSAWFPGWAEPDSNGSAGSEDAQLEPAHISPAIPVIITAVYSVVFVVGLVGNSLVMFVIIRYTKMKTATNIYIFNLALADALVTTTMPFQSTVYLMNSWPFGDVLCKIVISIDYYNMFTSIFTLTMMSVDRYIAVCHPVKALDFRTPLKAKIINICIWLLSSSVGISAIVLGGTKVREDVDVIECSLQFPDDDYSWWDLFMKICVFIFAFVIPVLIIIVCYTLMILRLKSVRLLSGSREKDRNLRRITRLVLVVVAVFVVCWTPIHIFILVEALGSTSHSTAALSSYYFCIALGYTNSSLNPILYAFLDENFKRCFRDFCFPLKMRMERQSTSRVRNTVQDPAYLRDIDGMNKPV
Sequence of Nonstructural protein 1 (Q194T2 whole entry): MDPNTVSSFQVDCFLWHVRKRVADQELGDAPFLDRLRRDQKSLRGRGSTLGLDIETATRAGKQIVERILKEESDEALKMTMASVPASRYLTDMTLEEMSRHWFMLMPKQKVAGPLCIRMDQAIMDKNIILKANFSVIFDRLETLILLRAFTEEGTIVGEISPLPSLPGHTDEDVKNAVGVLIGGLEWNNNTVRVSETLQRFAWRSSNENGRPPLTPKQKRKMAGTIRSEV
Sequence of Hexokinase HKDC1 (Q2TB90 whole entry): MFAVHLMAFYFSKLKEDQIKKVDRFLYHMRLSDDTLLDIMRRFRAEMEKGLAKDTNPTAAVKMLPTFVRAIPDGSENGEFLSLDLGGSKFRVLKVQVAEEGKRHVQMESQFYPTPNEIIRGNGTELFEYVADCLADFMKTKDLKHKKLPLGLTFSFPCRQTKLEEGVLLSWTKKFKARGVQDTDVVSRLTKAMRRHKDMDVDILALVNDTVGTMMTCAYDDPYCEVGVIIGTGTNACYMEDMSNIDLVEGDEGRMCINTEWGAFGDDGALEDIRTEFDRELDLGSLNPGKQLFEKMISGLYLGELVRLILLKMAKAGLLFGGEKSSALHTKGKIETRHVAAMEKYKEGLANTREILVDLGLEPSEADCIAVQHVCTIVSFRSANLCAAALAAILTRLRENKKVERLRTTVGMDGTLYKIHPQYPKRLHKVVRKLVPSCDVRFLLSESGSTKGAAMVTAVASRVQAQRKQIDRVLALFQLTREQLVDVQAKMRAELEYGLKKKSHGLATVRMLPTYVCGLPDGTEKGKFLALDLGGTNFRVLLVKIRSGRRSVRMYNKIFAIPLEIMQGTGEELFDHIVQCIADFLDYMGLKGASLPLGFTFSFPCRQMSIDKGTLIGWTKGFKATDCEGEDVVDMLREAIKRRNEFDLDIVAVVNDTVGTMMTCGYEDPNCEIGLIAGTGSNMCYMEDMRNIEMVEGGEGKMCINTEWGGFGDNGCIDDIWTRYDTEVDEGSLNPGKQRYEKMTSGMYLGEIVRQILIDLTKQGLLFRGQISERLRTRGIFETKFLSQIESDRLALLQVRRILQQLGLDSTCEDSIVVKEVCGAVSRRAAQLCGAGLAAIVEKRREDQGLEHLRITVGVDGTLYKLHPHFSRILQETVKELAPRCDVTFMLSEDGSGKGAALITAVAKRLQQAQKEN
Sequence of Paired box protein Pax-8 (Q06710 whole entry): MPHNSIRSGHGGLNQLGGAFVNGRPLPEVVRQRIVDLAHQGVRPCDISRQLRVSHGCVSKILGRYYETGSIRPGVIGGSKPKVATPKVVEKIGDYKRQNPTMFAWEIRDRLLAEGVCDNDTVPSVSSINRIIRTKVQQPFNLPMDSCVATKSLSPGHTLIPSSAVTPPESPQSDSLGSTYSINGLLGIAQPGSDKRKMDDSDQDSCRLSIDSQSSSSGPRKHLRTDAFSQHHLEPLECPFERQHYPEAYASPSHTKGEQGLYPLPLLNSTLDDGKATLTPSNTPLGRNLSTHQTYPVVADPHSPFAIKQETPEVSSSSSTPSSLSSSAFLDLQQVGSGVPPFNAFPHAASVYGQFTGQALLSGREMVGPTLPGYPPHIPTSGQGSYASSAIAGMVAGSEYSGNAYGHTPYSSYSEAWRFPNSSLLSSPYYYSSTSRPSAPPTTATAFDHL
Sequence of Beta-galactosidase (Q8VNN2 whole entry): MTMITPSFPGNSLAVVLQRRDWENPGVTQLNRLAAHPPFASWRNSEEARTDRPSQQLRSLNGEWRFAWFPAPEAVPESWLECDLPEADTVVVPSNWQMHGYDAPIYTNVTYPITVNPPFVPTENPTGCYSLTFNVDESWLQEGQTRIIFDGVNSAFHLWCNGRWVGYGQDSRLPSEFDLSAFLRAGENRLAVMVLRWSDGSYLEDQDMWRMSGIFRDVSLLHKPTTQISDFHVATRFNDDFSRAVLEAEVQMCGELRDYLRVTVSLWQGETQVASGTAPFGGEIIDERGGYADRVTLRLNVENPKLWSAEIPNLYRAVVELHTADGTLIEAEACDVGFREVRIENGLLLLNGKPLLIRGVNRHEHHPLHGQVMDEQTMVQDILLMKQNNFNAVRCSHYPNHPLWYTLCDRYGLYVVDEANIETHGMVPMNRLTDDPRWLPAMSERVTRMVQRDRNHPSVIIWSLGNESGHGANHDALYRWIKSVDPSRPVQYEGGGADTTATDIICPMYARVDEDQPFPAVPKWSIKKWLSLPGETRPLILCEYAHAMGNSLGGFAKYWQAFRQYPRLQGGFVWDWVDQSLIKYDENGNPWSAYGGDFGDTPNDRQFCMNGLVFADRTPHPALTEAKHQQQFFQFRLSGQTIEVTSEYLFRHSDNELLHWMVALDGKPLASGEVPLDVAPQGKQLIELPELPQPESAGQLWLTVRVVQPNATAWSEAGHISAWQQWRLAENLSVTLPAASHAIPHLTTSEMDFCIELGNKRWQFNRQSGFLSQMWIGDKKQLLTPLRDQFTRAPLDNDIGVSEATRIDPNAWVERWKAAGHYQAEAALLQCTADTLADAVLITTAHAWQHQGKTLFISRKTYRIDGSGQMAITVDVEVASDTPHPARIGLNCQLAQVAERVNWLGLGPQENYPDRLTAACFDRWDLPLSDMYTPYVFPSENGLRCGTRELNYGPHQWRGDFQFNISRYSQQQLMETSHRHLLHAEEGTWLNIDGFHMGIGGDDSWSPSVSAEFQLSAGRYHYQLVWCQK
Sequence of Cytochrome P450 2C9 (P11712 whole entry): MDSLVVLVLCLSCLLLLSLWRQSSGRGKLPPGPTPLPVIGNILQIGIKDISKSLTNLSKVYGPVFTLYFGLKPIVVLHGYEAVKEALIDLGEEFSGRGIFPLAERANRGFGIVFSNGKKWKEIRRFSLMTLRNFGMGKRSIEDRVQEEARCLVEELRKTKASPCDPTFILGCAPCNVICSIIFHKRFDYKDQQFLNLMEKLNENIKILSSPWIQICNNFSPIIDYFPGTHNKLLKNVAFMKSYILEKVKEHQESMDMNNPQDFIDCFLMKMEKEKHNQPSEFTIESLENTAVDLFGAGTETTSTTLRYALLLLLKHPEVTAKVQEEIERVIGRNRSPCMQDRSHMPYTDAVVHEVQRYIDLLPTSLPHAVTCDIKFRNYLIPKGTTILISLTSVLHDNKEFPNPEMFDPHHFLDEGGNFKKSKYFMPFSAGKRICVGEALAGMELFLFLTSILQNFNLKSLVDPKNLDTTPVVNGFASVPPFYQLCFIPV
Sequence of Eukaryotic translation initiation factor 4E (P63073 whole entry): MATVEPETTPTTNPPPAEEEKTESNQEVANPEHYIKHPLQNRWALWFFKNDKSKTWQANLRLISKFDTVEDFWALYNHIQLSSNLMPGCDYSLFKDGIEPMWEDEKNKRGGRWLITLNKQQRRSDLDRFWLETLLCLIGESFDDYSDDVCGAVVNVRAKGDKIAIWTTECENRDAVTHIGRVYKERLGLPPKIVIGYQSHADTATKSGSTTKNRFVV
Sequence of ATP-dependent molecular chaperone HSP82 (C4YTQ8 whole entry): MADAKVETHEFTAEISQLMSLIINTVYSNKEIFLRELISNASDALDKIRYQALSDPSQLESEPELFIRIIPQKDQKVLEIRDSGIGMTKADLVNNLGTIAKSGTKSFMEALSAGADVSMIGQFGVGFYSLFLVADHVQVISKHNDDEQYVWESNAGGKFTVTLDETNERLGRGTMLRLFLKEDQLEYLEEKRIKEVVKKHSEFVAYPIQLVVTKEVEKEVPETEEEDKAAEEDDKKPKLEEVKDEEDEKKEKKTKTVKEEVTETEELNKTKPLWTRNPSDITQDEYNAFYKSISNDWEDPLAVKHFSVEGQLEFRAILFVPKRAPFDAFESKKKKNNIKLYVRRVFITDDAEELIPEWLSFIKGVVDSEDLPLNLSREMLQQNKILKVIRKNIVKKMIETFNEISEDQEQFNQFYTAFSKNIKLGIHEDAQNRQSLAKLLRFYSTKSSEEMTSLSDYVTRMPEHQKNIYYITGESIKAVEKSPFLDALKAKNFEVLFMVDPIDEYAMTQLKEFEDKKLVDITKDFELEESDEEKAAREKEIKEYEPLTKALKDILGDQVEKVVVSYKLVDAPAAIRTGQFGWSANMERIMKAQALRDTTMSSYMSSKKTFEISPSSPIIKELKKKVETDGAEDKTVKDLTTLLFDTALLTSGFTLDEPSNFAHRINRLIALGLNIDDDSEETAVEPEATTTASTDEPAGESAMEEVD

Cc1ccc(OCC(=O)Nc2ccc3c(c2)OCCO3)cc1C
EC50 [1]: > 100 µM (not active)

O=C(CCN1C(=O)C2C3C=CC(C3)C2C1=O)Nc1ccccn1 (stereo not given)
IC50 [2]: > 64 µM (inactive)

Cc1cccc(C)c1Nc1nnc(SCc2cn3cccc(C)c3n2)s1
IC50 [3]: > 80 µM (inactive)

CC1=NN(c2ccccc2)C(=O)/C1=C/C=C/c1ccc(N(C)C)cc1
IC50 [4]: > 32 µM | EC50 [5]: 7.93 µM (active) | IC50 [6]: 3.14 µM (active) | IC50 [7]: > 80 µM (inactive) | CC50 [8]: 95.1 µM (active) | IC50 [9]: 8.28 µM (active)

CC(C)[C@@H](CC(=O)N[C@@H]1CCCC[C@H]1C(=O)N[C@H](CC(=O)N[C@@H](CCC(=O)O)CC(=O)O)Cc1c[nH]c2ccccc12)NC(=O)C[C@H](CO)NC(=O)[C@@H]1CNCC[C@H]1N
AC50 [10]: 31.6 µM (inconclusive)

CCN(CC)S(=O)(=O)c1cc(OC)ccc1N=Nc1ccc(O)c2ncccc12
AC50 [11]: 1.27 µM (active) | EC50 [12]: 96.3 µM (active) | IC50 [13]: 15.7 µM (not active) | EC50 [14]: 0.524 µM (active) | EC50 [15]: 1.61 µM (active) | EC50 [16]: > 180 µM (inactive) | IC50 [6]: 11.7 µM (active) | AC50 [17]: 2.41 µM (active) | EC50 [18]: 13.5 µM (active) | EC50 [19]: 8.84 µM (active)
